This passage reports melting point results from a melting point compilation (Tetko et al.; mined from patent text by program, amines drawn as free bases though some values may be those of a salt).

SMILES strings stand for the structures. Where only a bound is given, the exact number is not on record here.

The melting point is the temperature of the solid-liquid transition.

In the case of `C=CCONC(=O)c1nc(-c2ccc(Cl)c(OC)c2F)cc(N)c1Cl`, the melting point was 169 to 172 °C.
As for `COc1ccc(Cc2cccc(-c3c(O)c4ccc(Cl)cc4[nH]c3=O)c2)cc1`, the melting point was 282 to 284 °C.
The result for `Cn1c(C(=O)OC(C)(C)C)c(Br)c2cc(OCc3ccccc3)ccc21` reads 97 to 99 °C; that for `CCOC(=O)C1CN(C(C)=O)CCC1=O` (centres undefined), 53 to 55 °C; that for `CNC(=O)C(N)C(N)=O` (centres undefined), 121 to 122 °C.
In turn, `Nc1cc(C(=O)O)cc(S(N)(=O)=O)c1Oc1cccc(C(F)(F)F)c1` displayed a melting point of 270 °C.
The result for `Cn1c2c(c(=O)n(-c3cc(C(=O)O)c(Cl)cc3F)c1=O)CCC2` reads 270 to 273 °C.
For the compound `O=C(O)c1ccc(Oc2nccs2)cc1`, the melting point is 162 to 163 °C.
Compound `N#CC1=C(C2CCCC2)Nc2n[nH]cc2C1c1ccccc1Cl` (centres undefined) returned a melting point of 225 °C.
Then `CCCN(CCC)CCCC1CCN(CCNC(=O)N2c3cc(Cl)ccc3C(=O)Nc3cccnc32)CC1`, with 174 to 175 °C.
`COC(=O)C(C)(N)Cc1c[nH]c2ccc(Cl)cc12` (racemic) yielded a melting point of 170 °C.
The result for `O=C(NCCc1ccccc1)c1ccc(N2CCOCC2)nc1` reads 163 to 165 °C.
`CCN(CC)C(=O)Oc1cc(-c2ccncc2)nc2ccccc12` displayed a melting point of 76 °C.
The result for `O=C(c1ccc([N+](=O)[O-])cc1)N1CCc2cc(S(=O)(=O)n3cc(-c4ccccc4)[nH]c3=O)ccc21` reads 245 to 246 °C.
Then `Cc1cccc(SCn2cc(F)cnc2=O)c1`, with 124 °C; and `NC(=S)C=C(N)CCOCc1ccccc1`, with 93 to 94 °C; and `OCc1cnc2c(F)cccc2c1O`, with 176 to 178 °C.
In turn, `O=C(N[C@H](Cc1ccc(C(F)(F)F)cc1)[C@@H](O)c1cccc(F)c1)c1ccc(F)c2ccccc12` (racemic) showed a melting point of 200 to 201 °C.
`CNc1cccc(-c2nc(=O)c3ccccc3s2)n1` showed a melting point of 207 to 208 °C.
The compound `Cc1[nH]c(=O)n(C2CCCCC2)c1-c1ccc(Oc2ccccc2)cc1` displayed a melting point of 198 °C.
Then `Cc1cccc(NC(=O)NC2C(=O)N(CC34CC5CC(CC(C5)C3)C4)c3ccccc3N(c3ccccc3)C2=O)c1` (centres undefined), with 244 to 246 °C; and `COCCc1sc2ncnc(N)c2c1-c1ccc(NS(=O)(=O)c2ccccc2)cc1`, with 206 to 208 °C.
In turn, `NS(=O)(=O)c1cccc(NC(=O)c2cnn3c(C(F)(F)F)cc(-c4ccc(Cl)c(Cl)c4)nc23)c1` registered a melting point of 302 °C.
The result for `COc1ccc2c(c1)nc(Cn1ccnc1)n2-c1ccccc1` reads 104 to 106 °C; that for `CCOC1OC(COC(C)=O)C(OC2OC(COC(C)=O)C(OC(C)=O)C(OC(C)=O)C2OC(C)=O)C(OC(C)=O)C1OC(C)=O` (centres undefined), 133 to 135 °C.
For `CCOC1=NCCNC(c2ccccc2)=C1`, the melting point was 89 to 93.5 °C.
The result for `CS(=O)(=O)c1ccc2[nH]cc(CCN)c2c1` reads 134 to 138 °C; that for `Oc1ccc(Oc2ncc(C(F)(F)F)cc2Cl)cc1`, 70 to 72 °C; that for `C=CCC1Oc2c(C)c(C)c(O)c(C)c2S1` (centres undefined), 78.5 to 79.5 °C.
Then `Cc1nnc(COc2ccc(Oc3ccccc3)cc2)o1`, with 78 to 79 °C.
The result for `CCOC(=O)c1cnc(-c2cc([N+](=O)[O-])ccc2OCC)[nH]c1=O` reads 222 to 224 °C; that for `C=CCc1ccc(OCCC(C)C)c2c(=O)cc(-c3nnnn3Cc3ccccc3)oc12`, 92.5 to 94 °C.
For `O=C1N(C/C=C/c2ccccc2[N+](=O)[O-])CCN1c1ccncc1`, the melting point is 205 to 206 °C.
The result for `Nc1nc(NC2Cc3ccccc3N(Cc3ccc(F)cc3F)C2)c2cn[nH]c2n1` (centres undefined) reads 110 to 114 °C.
With `COC(=O)Nc1cccc2c1C(=O)c1c-2n[nH]c1-c1ccc(OC)cc1`, the melting point is more than 300 °C.
In turn, `COc1cc(-c2nc(-n3ccnc3)c3c(C)c(C#N)sc3n2)cc(OC)c1OC` displayed a melting point of 238 to 240 °C.
Consider `N#CCc1nnc(N)s1`, for which the melting point was in the range of 163 to 164 °C.
With `CC1(C)N=C(O)N=C(NC(=O)c2nc(Cl)c(N)nc2N)N1`, the melting point was in the range of 266 to 268 °C.
The result for `Cc1cc(SCC(CS(=O)(=O)c2ccc(-c3ccc(Cl)cc3)cc2)C(=O)O)nc(C)n1` (centres undefined) reads 170 to 172 °C.
Then `CN(C)c1ccc(C(=O)Cc2cccc(Cl)c2)cc1`, with 126 to 128 °C; and `CCOC(=O)C1CC(=O)c2c(C)c(O)c(C)c(C)c2O1` (centres undefined), with 120 to 121 °C; and `CCOC(=O)c1ccc(CCNc2ncnc(CC)c2Cl)cc1`, with 134 to 135 °C.
Then `COC(=O)C1=C(C)NC(C)=C(C(=O)OC)C1c1ccc(OC)c(OC)c1`, with 154 to 155 °C; and `CC(=NOCCO)c1ccc(-c2ccc3c(c2)OCO3)cc1`, with 132 to 134 °C; and `CN1CCN(c2cccc3ccc(NCc4ccccc4)cc23)CC1`, with 115 to 117 °C.
Take `CCc1cc(O)n2ncc(CC)c2n1`: the melting point was more than 310 °C.
The result for `O=C(O)Cc1ccc2c3ccccc3n(Cc3ccccc3)c2c1` reads 149 to 150 °C; that for `Cn1c(C(N)=O)nc([N+](=O)[O-])c1CBr`, 220 to 222 °C; that for `COc1cc(Cc2ccc3nc(N)nc(N)c3c2)cc(OC)c1`, 230 to 232 °C.
Then `CCSc1nn2ccccc2c1C(C)=O`, with 84 to 85 °C.
Then `CCOC(=O)c1c(C(C)C)csc1N/C=C(\C#N)C(=O)OC(C)(C)C`, with 93 to 94 °C.
Turning to `CCOC(=O)c1nc(NC(C)=O)sc1Cc1ccc(SCC)cc1`, the melting point is 190 °C.
Take `CCN1CCN(C(=O)c2ccc(-c3cc(C(=O)Cc4cccc(C)n4)ccn3)cc2)CC1`: the melting point was found to be 90 °C.
Then `Cn1cc2c(n1)-c1sccc1N(C(=O)c1ccc(NC(=O)C3CCCCC3)cc1)CC2`, with 240 to 242 °C; and `COC(CCCNC(=O)C1CCC(C(=O)NCCCC(OC)OC)CC1)OC` (centres undefined), with 191 to 195 °C.
The result for `CCc1nc2c(N)nc3cc(OCCNC(=O)OC(C)(C)C)ccc3c2n1CC1CCOCC1` reads 200 to 201 °C; that for `Cc1cc(-n2ccc(OCc3ccccc3)cc2=O)sc1C(=O)NCc1cccc(F)c1`, 140 to 141 °C.
The result for `NC(=O)c1sc2nccc(N3CCCC(O)C3)c2c1N` (centres undefined) reads 208 to 211 °C; that for `CCOC(=O)c1cn(-c2ccc(F)cc2F)c2c(F)c(F)c(F)c(F)c2c1=O`, 160 to 162 °C; that for `COc1ccc(Br)c2ccc(C(F)(F)F)nc12`, 84 to 85 °C.
For the compound `COc1ccccc1NC(=O)Nc1nc(Nc2ccccc2-c2ccccc2)nc(N(CC(=O)O)Cc2ccc(C)cc2)n1`, the melting point was in the range of 132 to 145 °C.
For `O=CN1CCCN(Cc2ccc(Cl)cc2)C1=C[N+](=O)[O-]`, the melting point lay within 131 to 133 °C.
The result for `CCc1c(-c2ccccc2)c2c(COCCN3CCCCC3)cc3c(O)ccc1n32` reads 196 to 198 °C.
The result for `C=CCOC(=O)c1c(C)nc2c(cnn2CCCC#N)c1N` reads 86 °C.
